{"source": "patent EP2951180B1", "about": "“2,6,7,8 SUBSTITUTED PURINES AS HDM2 INHIBITORS” (Merck Sharp & Dohme Corp., priority 2013, dated 2014)", "biological_target": "T1, HDM2 (Homo sapiens, UniProt Q00987)", "T1 construct": "Thioredoxin (N); made in house; host or cells: E. coli strain BL21(DE3)Rosetta", "T1 sequence (Q00987 17-125)": "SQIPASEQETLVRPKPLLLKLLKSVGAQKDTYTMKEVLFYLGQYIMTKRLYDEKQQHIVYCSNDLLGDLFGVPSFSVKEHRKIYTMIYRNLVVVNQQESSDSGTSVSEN", "assay": "HDM2 FRET assay (inhibition of binding of FITC labeled p53-pocket peptide to HDM2)", "conditions": "read-out: FRET IC50", "method_in_brief": "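Compounds were tested in 10-point serial dilution against 0.5 nM recombinant HDM2 binding 3 nM fluorescein-labeled p53-pocket peptide. Detection used 0.25 nM terbium cryptate anti-6xHis antibody in PBS buffer containing 0.01% BSA and 0.01% Tween-20.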", "key": {"[1]": {"conditions": "0.5 nM HDM2 (residues 17 to 125), 3nM peptide, two hour incubation at room temperature"}}, "note": "Read-outs that look alike come from different tables or passages of the source.", "data": [{"smiles": "C[C@@H](Nc1nc(-c2n[nH]c(=O)o2)nc2nc(N3CCOC4CCCCC43)n(C[C@H]3CC[C@H](C)CC3)c12)C1CCC1", "note": "(single isomer, unassigned) [Example 11.125]", "values": [{"measurement": "IC50", "setting": "Table 11", "value": 0.00749, "unit": "µM"}]}, {"smiles": "COC1(c2nc3nc(-c4noc(=O)[nH]4)nc(-c4cncc(Cl)c4)c3n2C[C@H]2CC[C@H](C)CC2)COC1", "note": "[Example 23.70, 3-{6-(5-chloropyridin-3-yl)-8-(3-methoxyoxetan-3-yl)-7-[(trans-4-methylcyclohexyl)methyl] -7H-purin-2-yl}-1,2,4-oxadiazol-5(4H)-one]", "values": [{"measurement": "IC50", "setting": "Table 23", "value": 0.00944, "unit": "µM"}]}, {"smiles": "C[C@@H](Nc1nc(C(=O)O)nc2nc(N3CCOCC3)n(Cc3ccc(C(F)(F)F)cc3)c12)C1CCC1", "note": "[Example 9.118, 6-{[(1R)-1-cyclobutylethyl]amino}-8-morpholin-4-yl-7-[4-(trifluoromethyl)benzyl]-7H-purine-2-carboxylic acid]", "values": [{"measurement": "IC50", "setting": "Table 9", "value": 0.0518, "unit": "µM"}]}, {"smiles": "C[C@H]1CC[C@H](Cn2c(N3CCOCC3)nc3nc(-c4noc(=O)[nH]4)nc(-c4cccc(Cl)c4)c32)CC1", "note": "[Example 16.1, 3-(6-(3-chlorophenyl)-7-(((trans)-4-methylcyclohexyl)methyl)-8-morpholino-7H-purin-2-yl)-1,2,4-oxadiazol-5(4H)-one]", "values": [{"measurement": "IC50", "setting": "[1]", "value": 0.0717, "unit": "µM"}]}, {"smiles": "C[C@@H](Nc1nc(-c2noc(=O)[nH]2)nc2nc(N(C)C3CCCC3)n(Cc3ccc(C(F)(F)F)cc3)c12)C1CCC1", "note": "[Example 9.82, 3-(6-{[(1R)-1-cyclobutylethyl]amino}-8-[cyclopentyl(methyl)amino]-7-[4-(trifluoromethyl)benzyl]-7H-purin-2-yl)-1,2,4-oxadiazol-5(4H)-one]", "values": [{"measurement": "IC50", "setting": "Table 9", "value": 0.0137, "unit": "µM"}]}, {"smiles": "CC[C@@H]1COCCN1c1nc2nc(-c3noc(=O)[nH]3)nc(-c3cccc(Cl)c3)c2n1C[C@H]1CC[C@H](C)CC1", "note": "[Example 16.47, 3-{6-(3-chlorophenyl)-8-[(3R)-3-ethylmorpholin-4-yl]-7-[(trans-4-methylcyclohexyl)methyl]-7H-purin-2-yl}-1,2,4-oxadiazol-5(4H)-one]", "values": [{"measurement": "IC50", "setting": "[1]", "value": 0.0111, "unit": "µM"}]}, {"smiles": "C[C@@H](Nc1nc(C(=O)O)nc2nc(N3CCCC[C@@H]3c3ccccc3)n(C[C@H]3CC[C@H](C)CC3)c12)C1CCC1", "note": "[Example 11.12, 6-{[(1R)-1-cyclobutylethyl]amino}-7-[(trans-4-methylcyclohexyl)methyl]-8-[(2R)-2-phenylpiperidin-1-yl]-7H-purine-2-carboxylic acid]", "values": [{"measurement": "IC50", "setting": "Table 11", "value": 0.00282, "unit": "µM"}]}, {"smiles": "C[C@@H](Nc1nc(-c2noc(=O)[nH]2)nc2nc(N3CCS(=O)(=O)CC3)n(C[C@H]3CC[C@H](C)CC3)c12)C1CCC1", "note": "[Example 11.79, 3-(6-{[(1R)-1-cyclobutylethyl]amino}-8-(1,1-dioxidothiomorpholin-4-yl)-7-[(trans-4-methylcyclohexyl)methyl]-7H-purin-2-yl)-1,2,4-oxadiazol-5(2H)-one]", "values": [{"measurement": "IC50", "setting": "Table 11", "value": 0.0333, "unit": "µM"}]}, {"smiles": "C[C@H]1CC[C@H](Cn2c(N3CCOC[C@H]3c3ccccc3)nc3nc(-c4noc(=O)[nH]4)nc(N4CCCC4C4CCC4)c32)CC1", "note": "(stereo partly drawn) [Example 11.62, 3-{6-(2-cyclobutylpyrrolidin-1-yl)-7-[(trans-4-methylcyclohexyl)methyl]-8-[(3R)-3-phenylmorpholin-4-yl]-7H -purin-2-yl}-1,2,4-oxadiazol-5(4H)-one]", "values": [{"measurement": "IC50", "setting": "Table 11", "value": 0.00784, "unit": "µM"}]}, {"smiles": "C[C@H]1CC[C@H](Cn2c(N3CCOC[C@H]3c3ccccc3)nc3nc(-c4n[nH]c(=O)o4)nc(-c4cc(Cl)cnc4O)c32)CC1", "note": "[Example 16.163, 5-{6-(5-chloro-2-hydroxypyridin-3-yl)-7-[(trans-4-methylcyclohexyl)methyl]-8-[(3R)-3-phenylmorpholin-4-yl]-7H-purin-2-yl} -1,3,4-oxadiazol-2(3H)-one]", "values": [{"measurement": "IC50", "setting": "[1]", "value": 0.00123, "unit": "µM"}]}, {"smiles": "C[C@@H](Nc1nc(-c2noc(=O)[nH]2)nc2nc(CC(C)(C)C)n(C[C@H]3CC[C@H](C)CC3)c12)C1CCC1", "note": "[Example 20.7, 3-(6-{[(1R)-1-cyclobutylethyl]amino}-8-(2,2-dimethylpropyl)-7-[(trans-4-methylcyclohexyl)methyl]-7H-purin-2-yl)-1,2,4-oxadiazol-5(4H)-one]", "values": [{"measurement": "IC50", "setting": "Table 20", "value": 0.0209, "unit": "µM"}]}, {"smiles": "C[C@@H](Nc1nc(C(=O)O)nc2nc(C3(c4ccccc4)CC3)n(Cc3ccc(C(F)(F)F)cc3)c12)C1CCC1", "note": "[Example 20.3, 6-{[(1R)-1-cyclobutylethyl]amino}-8-(1-phenylcyclopropyl)-7-[4-(trifluoromethyl)benzyl]-7H-purine-2-carboxylic acid]", "values": [{"measurement": "IC50", "setting": "Table 20", "value": 0.00857, "unit": "µM"}]}, {"smiles": "CC(C)c1ccnc(-c2nc3nc(C(=O)O)nc(N[C@H](C)C4CCC4)c3n2C[C@H]2CC[C@H](C)CC2)c1F", "note": "[Example 15.6, 6-(((R)-1-Cyclobutylethyl)amino)-8-(3-fluoro-4-isopropylpyridin-2-yl)-7-((trans-4-methylcyclohexyl)methyl)-7H-purine-2-carboxylic acid]", "values": [{"measurement": "IC50", "setting": "[1]", "value": 0.00602, "unit": "µM"}]}, {"smiles": "CC[C@H](Nc1nc2nc(-c3n[nH]c(=O)o3)nc(-c3cccc(Cl)c3)c2n1C[C@H]1CC[C@H](C)CC1)c1ccccc1", "note": "[Example 16.61, 5-[6-(3-chlorophenyl)-7-[(trans-4-methylcyclohexyl)methyl]-8-{[(1S)-1-phenylpropyl]amino} -7H-purin-2-yl]-1,3,4-oxadiazol-2(3H)-one]", "values": [{"measurement": "IC50", "setting": "[1]", "value": 0.00967, "unit": "µM"}]}, {"smiles": "C[C@@H](Nc1nc(C(=O)O)nc2nc(N3CCOC(c4ccccc4)C3)n(Cc3ccc(C(F)(F)F)cc3)c12)C1CCC1", "note": "(stereo partly drawn) [Example 9.22, 6-{[(1R)-1-cyclobutylethyl]amino}-8-(2-phenylmorpholin-4-yl)-7-[4-(trifluoromethyl)benzyl]-7H-purine-2-carboxylic acid]", "values": [{"measurement": "IC50", "setting": "Table 9", "value": 0.0124, "unit": "µM"}]}, {"smiles": "Cc1cccc(-c2nc3nc(C(=O)O)nc(N[C@H](C)C4CCCCC4)c3n2Cc2ccc(C(F)(F)F)cc2)c1", "note": "[Example 6.42, 6-{[(1R)-1-cyclohexylethyl]amino}-8-(3-methylphenyl)-7-[4-(trifluoromethyl)benzyl]-7H-purine-2-carboxylic acid]", "values": [{"measurement": "IC50", "setting": "Table 6", "value": 0.564, "unit": "µM"}]}, {"smiles": "CC[C@H]1CC[C@H](Cn2c(N3CCCCC3)nc3nc(C(=O)O)nc(N[C@H](C)C4CCC4)c32)CC1", "note": "[Example 18.18, 6-{[(1R)-1-cyclobutylethyl]amino}-7-[(trans-4-ethylcyclohexyl)methyl]-8-piperidin-1-yl-7H-purine-2-carboxylic acid]", "values": [{"measurement": "IC50", "setting": "Table 18", "value": 0.0086, "unit": "µM"}]}, {"smiles": "C[C@H]1CC[C@H](Cn2c(N3CCOC[C@H]3c3ccccc3)nc3nc(-c4n[nH]c(=O)o4)nc(C4CCCCC4)c32)CC1", "note": "[Example 16.166, 5-{6-cyclohexyl-7-[(trans-4-methylcyclohexyl)methyl]-8-[(3R)-3-phenylmorpholin-4-yl]-7H -purin-2-yl}-1,3,4-oxadiazol-2(3H)-one]", "values": [{"measurement": "IC50", "setting": "[1]", "value": 0.00922, "unit": "µM"}]}, {"smiles": "CCCCN(C)c1nc(C(=O)O)nc2nc(-c3cccc(C)c3)n(Cc3ccc(C(F)(F)F)cc3)c12", "note": "[Example 6.83, 6-[butyl(methyl)amino]-8-(3-methylphenyl)-7-[4-(trifluoromethyl)benzyl]-7H-purine-2-carboxylic acid]", "values": [{"measurement": "IC50", "setting": "Table 6", "value": 0.834, "unit": "µM"}]}, {"smiles": "C[C@@H](Nc1nc(-c2noc(=O)[nH]2)nc2nc(C(C)(O)C(F)(F)F)n(C[C@H]3CC[C@H](C)CC3)c12)C1CCC1", "note": "(single isomer, unassigned) [Example 22.12]", "values": [{"measurement": "IC50", "setting": "Table 22", "value": 0.0267, "unit": "µM"}]}, {"smiles": "COc1ccc(C)cc1-c1nc2nc(C(=O)O)nc(NC(C)C3CC(C)C3)c2n1Cc1ccc(C(F)(F)F)cc1", "note": "(stereo not drawn) [Example 7.18, 8-(2-methoxy-5-methylphenyl)-6-{[1-(3-methylcyclobutyl)ethyl]amino}-7-[4-(trifluoromethyl)benzyl]-7H-purine-2-carboxylic acid]", "values": [{"measurement": "IC50", "setting": "Table 7", "value": 0.163, "unit": "µM"}]}, {"smiles": "C[C@@H](Nc1nc(-c2nc(=O)n(C)[nH]2)nc2nc(N3CCOC[C@H]3c3ccccc3)n(C[C@H]3CC[C@H](C)CC3)c12)C1CCC1", "note": "[Example 12.19, 5-(6-{[(1R)-1-cyclobutylethyl]amino}-7-[(trans-4-methylcyclohexyl)methyl]-8-[(3R)-3-phenylmorpholin-4-yl]-7H-purine-2-yl)-2-methyl-2,4-dihydro-3H-1,2,4-triazol-3-one]", "values": [{"measurement": "IC50", "setting": "[1]", "value": 0.00161, "unit": "µM"}]}, {"smiles": "C[C@@H](Nc1nc(-c2noc(=O)[nH]2)nc2nc(C(C)(F)c3ccccc3)n(C[C@H]3CC[C@H](C)CC3)c12)C1CCC1", "note": "(single isomer, unassigned) [Example 22.78]", "values": [{"measurement": "IC50", "setting": "Table 22", "value": 0.0123, "unit": "µM"}]}, {"smiles": "CC(C)c1ccnc(-c2nc3nc(C(=O)O)nc(N[C@H](C)C4CCC4)c3n2Cc2ccc(C(F)(F)F)cc2N)c1", "note": "[Example 8.1, 7-[2-amino-4-(trifluoromethyl)benzyl]-6-{[(1R)-1-cyclobutylethyl]amino}-8-[4-(propan-2-yl)pyridin-2-yl]-7H-purine-2-carboxylic acid]", "values": [{"measurement": "IC50", "setting": "Table 8", "value": 0.00162, "unit": "µM"}]}, {"smiles": "COC(c1nc2nc(-c3noc(=O)[nH]3)nc(-c3cccc(Cl)c3)c2n1C[C@H]1CC[C@H](C)CC1)C1CCOCC1", "note": "(mixture of isomers) [Example 23.12, 3-{6-(3-chlorophenyl)-8-[methoxy(tetrahydro-2H-pyran-4-yl)methyl]-7-[(trans-4-methylcyclohexyl)methyl] -7H-purin-2-yl}-1,2,4-oxadiazol-5(4H)-one]", "values": [{"measurement": "IC50", "setting": "Table 23", "value": 0.0133, "unit": "µM"}]}, {"smiles": "COc1ccc(C)cc1-c1nc2nc(C(=O)O)nc(N[C@H](C)C3CC(F)(F)C3)c2n1Cc1ccc(C(F)(F)F)cc1", "note": "[Example 7.17, 6-{[(1R)-1-(3,3-difluorocyclobutyl)ethyl]amino}-8-(2-methoxy-5-methylphenyl)-7-[4-(trifluoromethyl)benzyl]-7H-purine-2-carboxylic acid]", "values": [{"measurement": "IC50", "setting": "Table 7", "value": 0.0589, "unit": "µM"}]}, {"smiles": "CCC(CO)c1nc2nc(-c3noc(=O)[nH]3)nc(N[C@H](C)C3CCC3)c2n1C[C@H]1CC[C@H](C)CC1", "note": "(stereo partly drawn) [Example 22.82, 3-(6-{[(1R)-1-cyclobutylethyl]amino}-8-[1-(hydroxymethyl)propyl]-7-[(trans-4-methylcyclohexyl)methyl]-7H-purin-2-yl)-1,2,4-oxadiazol-5(4H)-one]", "values": [{"measurement": "IC50", "setting": "Table 22", "value": 0.0101, "unit": "µM"}]}]}
